# Measurements: patent publication US9084779B2, “Conjugates of nitroimidazoles and their use as chemotherapeutic agents” (The Johns Hopkins University, priority 2011, dated 2015)
# What was measured:
# [1] = tested on: Hep3B human hepatocellular carcinoma cells; test: MTS tetrazolium cell proliferation assay, 72-h exposure; assay type: cell-based; settings: normoxic (21% O2), read-out: IC50 Normoxic (N)
# Description: Anti-proliferative assay. The human hepatocellular carcinoma cell line Hep3B was purchased from American Type culture Collection (ATCC, Manassas, Va.). Dulbecco's Modified Eagle Medium (DMEM) and penicillin/streptomycin (P/S) were obtained from GIBCO Invitrogen. Fetal Bovine serum (FBS) was obtained from Thermo Scientific Hyclone. Dimethyl sulfoxide (DMSO-Hybri-Max) was purchased from Sigma-Aldrich Co. and the CellTiter 96 AQueous One Solution Cell Proliferation Assay (MTS) was acquired from Promega Corp. Hep3B cells were maintained in DMEM supplemented with 10% FBS and 1× P/S solution. Cultures were incubated at 37° C. in a 5% CO2 atmosphere with 99% humidity. Stock solutions of test compounds were prepared in DMSO for use in the cell culture viability assays.
# MTS tetrazolium cell proliferation assay. The viability of Hep3B cells exposed to the synthesized compounds was determined by the MTS assay. Briefly, Hep3B cells were plated in 96-well plates at a density of 3.0×10^3 cells/well and incubated for 24-h before treatment. At the initiation of treatment, the growth media was replaced with 200 μL of media containing increasing concentrations of the test compounds in triplicate wells. The final DMSO concentration in the media was 1.0% including the media added to the control wells minus the test compound. After a 72-hour incubation, 40 μL of MTS solution was added to each well and the plates were incubated for an additional 3.0 hours. The plates were then read at 490 nm on a Biotek Instruments PowerWave 200 microplate reader. For each experiment the percent growth inhibition relative to the control (no drug addition) was calculated and a dose inhibition curve was generated. The concentration of drug required to inhibit cell growth by 50% (IC50) compared to the control cells was then determined by non-linear regression using PSI-Plot software (Poly Software International).
# Antiproliferative activity. The anti-cancer activities of the parent compounds 3 and 8 and the conjugated compounds 7a-d and 10a-d were tested against Hep3B human hepatocellular carcinoma cells in culture.
# [2] = tested on: 786-0 human renal adenocarcinoma cells; test: MTT cell viability assay, 3 days; assay type: cell-based; settings: Homo sapiens, 786-0, 72 h, normoxic conditions, 1% DMSO
# Protocol: (§1) Additional cell culture, drug treatment and cell viability assays. HT29 human colorectal carcinoma cells, 786-0 human renal adenocarcinoma cells and Hep3B human hepatocellular carcinoma cells were obtained from ATCC and maintained in culture according to their recommendations. […] After the treatment period viability of the cells was determined with the MTT cell viability assay and dose response curves were generated using the calculated values of the percentage viable cells relative to the vehicle control.
# [3] = tested on: HT29 human colorectal carcinoma cells; test: MTT cell viability assay, 3 days; assay type: cell-based; settings: Homo sapiens, HT-29, 72 h, normoxic conditions, 1% DMSO
# Protocol: as §1
# [4] = tested on: Hep3B human hepatocellular carcinoma cells; test: MTT cell viability assay, 3 days; assay type: cell-based; settings: Homo sapiens, Hep3B, 72 h, normoxic conditions, 1% DMSO
# Protocol: as §1
# [5] = tested on: orthotopic HT29 tumor implants; test: Orthotopic xenograft of HT29 human colorectal carcinoma in nude mice, systemic treatment; assay type: in vivo, nude (Nu/Nu) mice
# Protocol: Orthotopic Xenograft implantation of HT29 human colorectal carcinoma cells into nude mice. HT29 cells were grown in culture in McCoy's medium until sub-confluent. A single cell suspension of HT29 was then prepared in HBSS and 1×10^7 cells were injected subcutaneously into the flanks of four male T-cell deficient nude (Nu/Nu) mice. Subcutaneous tumors were allowed to grow for 14 days before harvesting and preparation for orthotopic implantation. The mice were euthanized and the subcutaneous tumors were removed using sterile technique. The tumors were divided into 3×3 mm pieces that were kept in phosphate buffered saline (PBS) on ice. T-cell deficient nude (NU/NU) mice (6 male, 5 female) were anesthetized by injecting 0.5 to 1.0 mL of Avertin (20 mM) intraperitoneally in PBS. The abdomen was prepped with 70% ethanol three times and a small nick was made in the skin. The abdominal wall musculature was grasped, lifted, and entered with a single blade of scissors. The single blade of the scissors was used to push the contents of the abdominal cavity away and the incision was extended 2-3 cm. The cecum was identified by its blind ending pouch and exteriorized. The cecum was isolated from the rest of the mouse using pre-cut, sterile gauze and kept moist with warm PBS. A figure of 8 stitches was placed onto the cecum using a 7-0 sized suture and the cecal wall was slightly damaged at the site where the HT29 tumor piece is to be implanted using forceps. An HT29 tumor piece was positioned on the cecum under the stitch and the stitch was then tied. The cecum was returned to the abdominal cavity. Using staples, the mouse abdominal wall musculature and skin was closed and the mouse was allowed to recover from anesthesia.
# Systemic treatment with M3N-PEG-2NI (compound 7d). A 40 mM stock solution of M3N-PEG-2NI was prepared by dissolving 0.14 g of M3N-PEG-2NI (MW=616.3 g/mol) in 5.7 mL of CPE. Each day of treatment, 4 T-cell deficient nude mice (2 male, 2 female) bearing orthotopic HT29 tumor implants received 0.1 ml of 20 mM M3N-PEG-2NI via I.V. or I.P. injections. The remaining 4 T-cell deficient nude mice (2 male, 2 female) received 0.1 mL of CPE (FIG. 7) Body weight of mice was monitored every week, until significant body weight change occurred. Then, body weight was measured every other day until day 24. All 8 mice were euthanized on day 24. The mice were dissected and their major organs collected. Special attention was taken in examination of livers since liver metastasis is common in orthotopic colon cancer models.
# [6] = tested on: LNCaP human prostate cancer cells; test: Western blot analysis of 2-nitroimidazole induced protein adducts in cell culture; assay type: cell-based; settings: 80 μM, 6 hours normoxic then 6 hours hypoxic or normoxic
# Protocol: Western blot analysis of 2-nitroimidazole induced protein adducts in LNCaP cell cultures. Exponentially growing LNCaP human prostate cancer cells were treated with DMSO, 80 μM M3N-PEG-2NI or Hypoxyprobe-1 in standard media for 6 hours under normoxic conditions and then under hypoxic or normoxic conditions for additional 6 hours. Afterward the media was aspirated, the cells washed and ice cold RIPA lysis buffer was added and the cells lysed on ice for 15 minutes. The samples were centrifuged and the lysate collected. Cellular proteins in the extracts were analyzed for the presence of protein adducts using standard western blotting technique. The primary antibody was PAb2627 polyclonal antibody (1:200) directed against Hydroxyprobe-1 protein adducts. The secondary antibody was Anti-Rabbit HRP conjugate (1:2000). Detection was by chemiluminescence
# [7] = 0.1 ml of 20 mM I.V. or I.P., three weeks, euthanized day 24, listed as M3N-PEG-2NI
smiles,measurement,setting,value
"COc1ccc(C[C@H](C)[C@H](C)Cc2ccc(OC)c(OCCOCCOCCOCCn3ccnc3[N+](=O)[O-])c2)cc1OC (racemic) [Compound 7d, (±)-(2R,3S)-4-(3,4-Dimethoxyphenyl)-1-[4-methoxy-3-[12-(2-nitro-1H-imidazol-1-yl)-1,4,7,10-tetraoxadodecanyl]phenyl]-2,3-dimethylbutane]",IC50,[1],12.6 ± 4.9 µM
same,IC50,[2],10 to 14 µM
same,IC50,[3],4 to 6 µM
same,IC50,[4],4 µM
same,Mean Primary Tumor and Mass,"[5]; 0.1 ml of 20 mM I.V. or I.P., three weeks, euthanized day 24, listed as M3N-PEG-2N",300 ± 140 mg
same,Mean Abdominal Cavity Tumor Mass,[5]; [7],75 ± 50 mg
same,Mean Primary Tumor and Mass,[5]; [7],300 ± 140 mg
same,Body Weight Increase,"[5]; 0.1 ml of 20 mM I.V. or I.P., to day 24",11.3%
same,Mean Total Tumor Load,"[5]; primary tumor plus total tumor mass, 0.1 ml of 20 mM I.V. or I.P., day 24, listed as M3N-PEG-2NI",375 ± 150 mg
same,Mice that developed liver metastasis,"[5]; treated group of 4 mice, day 24",1 of the 4
same,Peritoneal tumors,"[5]; treated group, mice 5 (female) and 7 (male)",no peritoneal tumors
same,Peritoneal tumors,"[5]; treated group, mice 6 (female) and 8 (male)","a single, small peritoneal tumor"
same,"Tumor masses surrounding the kidneys and ovaries, weight each","[5]; treated group, mouse 5",< 100 mg
same,"Tumor surrounding the ovaries, weight","[5]; treated group, mouse 6",< 100 mg
same,Protein adducts by western blot (PAb2627 antibody),[6],showed evidence of protein adducts
